pIC50: −log10 of the molar value. Each block holds one compound with its values, some of them ahead of it.
Tests used:
CYP1A2 = target: T1, CYP1A2 (Homo sapiens, UniProt P05177); assay: Cytochrome P450 inhibition, CYP1A2; format: in vitro ADME
T1 sequence (P05177 1-516): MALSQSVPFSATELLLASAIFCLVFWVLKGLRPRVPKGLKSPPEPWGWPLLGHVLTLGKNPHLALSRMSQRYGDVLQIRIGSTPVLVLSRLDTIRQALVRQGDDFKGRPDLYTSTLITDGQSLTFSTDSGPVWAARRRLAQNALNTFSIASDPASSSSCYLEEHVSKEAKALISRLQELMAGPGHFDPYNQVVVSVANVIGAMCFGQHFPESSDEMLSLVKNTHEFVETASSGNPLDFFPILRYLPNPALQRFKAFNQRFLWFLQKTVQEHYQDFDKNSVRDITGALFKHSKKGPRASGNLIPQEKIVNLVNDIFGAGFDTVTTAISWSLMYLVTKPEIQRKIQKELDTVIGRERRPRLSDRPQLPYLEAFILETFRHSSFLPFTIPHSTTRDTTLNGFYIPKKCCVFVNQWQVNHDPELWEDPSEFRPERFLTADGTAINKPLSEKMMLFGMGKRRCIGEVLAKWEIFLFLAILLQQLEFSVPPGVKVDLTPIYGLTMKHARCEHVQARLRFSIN

Plasma protein binding = format: in vitro ADME
CYP3A4 = CYP3A4 (Homo sapiens, UniProt P08684); assay: Cytochrome P450 inhibition, CYP3A4; format: in vitro ADME
[1] = cited from earlier work
Aqueous solubility = format: physicochemical
Partition coefficient = format: physicochemical
CYP2D6 = CYP2D6 (Homo sapiens, UniProt P10635); assay: Cytochrome P450 inhibition, CYP2D6; format: in vitro ADME
HepG2 cells = assay: In vitro toxicity, HepG2 cell viability; format: cell-based
[2] = cited from earlier work; remark: listed apart in the source
CYP2C9 = CYP2C9 (Homo sapiens, UniProt P11712); assay: Cytochrome P450 inhibition, CYP2C9; format: in vitro ADME
CYP2C19 = CYP2C19 (Homo sapiens, UniProt P33261); assay: Cytochrome P450 inhibition, CYP2C19; format: in vitro ADME
ALK2 over ALK5 = details: cited from earlier work
ALK2 (R206H) = target: T2, ALK2 (R206H) (Homo sapiens, UniProt Q04771, R206H); assay: In vitro enzyme assay; format: biochemical
T2 sequence (Q04771 21-509 R206H): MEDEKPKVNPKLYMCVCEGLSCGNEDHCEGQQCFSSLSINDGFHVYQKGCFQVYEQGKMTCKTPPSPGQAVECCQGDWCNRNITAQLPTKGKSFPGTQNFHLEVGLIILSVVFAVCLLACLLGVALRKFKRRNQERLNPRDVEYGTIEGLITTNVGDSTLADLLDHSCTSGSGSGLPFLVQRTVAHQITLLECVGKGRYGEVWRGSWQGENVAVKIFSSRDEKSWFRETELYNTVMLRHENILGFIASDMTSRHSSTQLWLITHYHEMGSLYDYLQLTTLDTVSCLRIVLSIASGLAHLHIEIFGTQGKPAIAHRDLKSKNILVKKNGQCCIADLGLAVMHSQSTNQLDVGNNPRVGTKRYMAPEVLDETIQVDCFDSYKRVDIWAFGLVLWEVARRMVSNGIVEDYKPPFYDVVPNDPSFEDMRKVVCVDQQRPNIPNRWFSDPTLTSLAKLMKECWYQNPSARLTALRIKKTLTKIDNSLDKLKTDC

Sequence of CYP2C19 (P33261 whole entry): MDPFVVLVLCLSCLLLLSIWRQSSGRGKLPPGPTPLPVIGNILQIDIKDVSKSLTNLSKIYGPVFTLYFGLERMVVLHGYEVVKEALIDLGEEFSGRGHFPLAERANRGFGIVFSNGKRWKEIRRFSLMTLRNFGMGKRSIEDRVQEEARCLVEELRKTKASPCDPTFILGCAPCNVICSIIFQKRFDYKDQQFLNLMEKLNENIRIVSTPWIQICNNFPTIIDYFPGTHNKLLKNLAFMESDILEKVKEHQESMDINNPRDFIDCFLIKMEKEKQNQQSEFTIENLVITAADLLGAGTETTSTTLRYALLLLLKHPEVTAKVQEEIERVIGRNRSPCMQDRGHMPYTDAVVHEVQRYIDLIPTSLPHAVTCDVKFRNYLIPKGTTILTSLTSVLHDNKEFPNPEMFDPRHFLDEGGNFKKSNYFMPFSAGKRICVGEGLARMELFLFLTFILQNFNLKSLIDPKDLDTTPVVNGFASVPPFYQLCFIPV
Sequence of CYP3A4 (P08684 whole entry): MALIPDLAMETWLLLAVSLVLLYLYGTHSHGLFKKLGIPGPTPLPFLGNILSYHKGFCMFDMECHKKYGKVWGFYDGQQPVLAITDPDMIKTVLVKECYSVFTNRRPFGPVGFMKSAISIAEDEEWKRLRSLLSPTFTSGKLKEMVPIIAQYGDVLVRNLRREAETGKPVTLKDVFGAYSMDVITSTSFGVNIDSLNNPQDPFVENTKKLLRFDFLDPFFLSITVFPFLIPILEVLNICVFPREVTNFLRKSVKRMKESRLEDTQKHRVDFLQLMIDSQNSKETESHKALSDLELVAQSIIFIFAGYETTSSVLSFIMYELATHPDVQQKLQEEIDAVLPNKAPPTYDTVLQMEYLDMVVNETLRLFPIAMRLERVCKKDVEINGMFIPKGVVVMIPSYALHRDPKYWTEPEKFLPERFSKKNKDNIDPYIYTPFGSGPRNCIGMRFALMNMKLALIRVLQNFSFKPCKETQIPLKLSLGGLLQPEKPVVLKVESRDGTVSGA
Sequence of CYP2C9 (P11712 whole entry): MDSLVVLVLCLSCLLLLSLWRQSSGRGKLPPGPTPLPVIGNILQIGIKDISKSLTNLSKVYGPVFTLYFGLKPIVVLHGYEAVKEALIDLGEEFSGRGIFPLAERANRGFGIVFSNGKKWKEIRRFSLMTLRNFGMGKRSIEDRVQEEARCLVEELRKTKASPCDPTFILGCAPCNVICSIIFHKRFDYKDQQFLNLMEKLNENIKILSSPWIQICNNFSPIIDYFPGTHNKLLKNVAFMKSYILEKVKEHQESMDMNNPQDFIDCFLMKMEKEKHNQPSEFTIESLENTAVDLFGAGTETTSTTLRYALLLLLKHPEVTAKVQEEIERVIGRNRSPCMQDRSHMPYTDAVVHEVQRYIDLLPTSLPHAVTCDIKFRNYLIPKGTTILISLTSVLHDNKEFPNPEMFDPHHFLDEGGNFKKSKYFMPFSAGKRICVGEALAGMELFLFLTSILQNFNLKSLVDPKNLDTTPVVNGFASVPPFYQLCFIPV
Sequence of CYP2D6 (P10635 whole entry): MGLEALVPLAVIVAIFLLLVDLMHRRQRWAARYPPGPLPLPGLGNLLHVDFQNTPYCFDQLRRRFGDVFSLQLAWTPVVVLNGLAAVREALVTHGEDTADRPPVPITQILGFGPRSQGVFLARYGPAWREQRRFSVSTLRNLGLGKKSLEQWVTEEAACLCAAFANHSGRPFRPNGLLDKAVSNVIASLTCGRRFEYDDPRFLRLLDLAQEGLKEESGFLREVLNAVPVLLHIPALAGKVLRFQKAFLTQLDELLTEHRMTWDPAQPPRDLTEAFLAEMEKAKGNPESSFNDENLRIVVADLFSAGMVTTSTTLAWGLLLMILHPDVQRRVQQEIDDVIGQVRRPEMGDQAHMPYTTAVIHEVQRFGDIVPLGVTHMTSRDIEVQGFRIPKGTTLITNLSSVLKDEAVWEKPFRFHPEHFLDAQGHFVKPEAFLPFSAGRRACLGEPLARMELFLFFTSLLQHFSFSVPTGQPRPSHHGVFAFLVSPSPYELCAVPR

CYP1A2 % inh. at 10 μM (CYP1A2): 28% | PPB human (%) at 10 μM (Plasma protein binding): 97.8% | CYP3A4 % inh. at 10 μM (CYP3A4): 82% | aqueous solubility at pH 7.4 (Aqueous solubility): 10.6 μg/mL | partition coefficient (log D, n-octanol/PBS, pH 7.4) (Partition coefficient): 2.26 | CYP2D6 % inh. at 10 μM (CYP2D6): 30% | CYP2C9 % inh. at 10 μM (CYP2C9): 30% | CYP2C19 % inh. at 10 μM (CYP2C19): 34%
SMILES: c1ccc2c(-c3cnn4cc(-c5ccc(N6CCNCC6)cc5)cnc34)ccnc2c1 [LDN-193189]
solubility in aqueous solutions (in words) [1]: poorly soluble | in vitro toxicity HepG2 cell (% viability at 30 μM) (HepG2 cells): 77% | binding to serum proteins (in words) [2]: highly bound

SMILES: COc1cc(-c2cc(-c3ccc(N4CCNCC4)cc3)cnc2C)cc(OC)c1OC [LDN-214117]
selectivity for ALK2 over ALK5 (ALK2 over ALK5): more than 100 fold

pIC50 (ALK2 (R206H)): 7.32
SMILES: c1cncc(-c2n[nH]cc2-c2ccnc(Nc3ccc(N4CCNCC4)cc3)n2)c1 [Compound 1, N-[4-(Piperazin-1-yl)phenyl]-4-(3-pyridin-3-yl-1H-pyrazol-4-yl)pyrimidin-2-amine]

SMILES: c1cc(-c2cnn3cc(-c4ccc(N5CCNCC5)cc4)cnc23)c2cccnc2c1 [LDN-212854]
solubility in aqueous solutions (in words) [1]: poorly soluble | binding to serum proteins (in words) [2]: highly bound
